Where two headings read alike, the source gives them in different places.

The nature of data set [1]: Phase 1b clinical study: plasma pharmacokinetics after single and multiple once-daily oral doses of AV-101. To be noted: human plasma.
Method: (§1) A Phase 1b, single-site, randomized, double-blind, placebo-controlled, study was conducted involving multiple oral doses of AV-101 in healthy male and female subjects. Subjects were randomized into one of three cohorts (360, 1,080, and 1,440 mg) and received a daily oral dose for 14 consecutive days. […] The safety, pharmacokinetics (PK), tolerability of treatment, and antihyperalgesic effect of AV-101 on capsaicin-induced hyperalgesia were assessed.
(§2) Blood was collected in 6-mL lithium heparin Vacutainer tubes. Samples were centrifuged, and the plasma was separated from the cells and frozen within 30 minutes after centrifugation. Centrifuged samples were placed on ice until they were placed in the freezer. Plasma samples were stored frozen at approximately −20° C. until their shipment to a contractor for analysis.
(§3) Baseline samples (0 minutes) were collected before the drug was administered on Day 1 and on Day 14. Samples were then collected at 0.5, 1, 1.5, 2, 4, 6, 8, 12, and 24 hours after dosing on Day land Day 14.
(§4) Both assays used a plasma sample volume of 50.0 μL.
The test system of data set [2] is excitotoxic and ischemic neuronal damage. To be noted: cited from earlier work.
The target of data set [3] is glycine B (GlyB) coagonist site on the NMDA-R (Homo sapiens, UniProt Q05586). Conditions: cited from earlier work.
For data set [4] the following is noted: after administration; cited from earlier work.
Data set [5] in a line: Safety and tolerability in humans (clinical study). Conditions: certain doses (360, 1,080, 1,440 mg daily oral). It is filed as in vivo, human. Here is the method:
The compound is an antihyperalgesic.
“Without significant adverse effect” means that substantially all patients to whom L-4-chlorokynurenine is administered will have no more than a “mild” adverse event as defined by the U.S. Food and Drug Administration (FDA). The FDA defines a “mild adverse event” as an event that is easily tolerated by the subject, causing minimal discomfort and not interfering with everyday activities. In contrast, a “moderate adverse event” is an event that is sufficiently discomforting causing it to interfere with normal everyday activities.

For data set [6] the following is noted: human, in vivo, po.
Method: as §1, §2, §3, §4
For the next data set, the system named is activated astrocytes. To be noted: within activated astrocytes (Reference 5); cited from earlier work.
Data set [7] concerns capsaicin-induced hyperalgesia. In words: Antihyperalgesic effect on capsaicin-induced hyperalgesia (VAS pain assessments) in Phase 1b study. The format is in vivo, human. Here is the method: On Day 1 and Day 14 of the clinical study, two intradermal injections of 250 μg of capsaicin were injected sequentially into the volar aspect of alternate forearms to produce burning pain, secondary hyperalgesia, and a flare. The capsaicin USP (United States Pharmacopeia) was prepared according to the site's standard procedure and dissolved in 20% cyclodextrin at a concentration of 10 mg/mL.
The first capsaicin injection in one forearm was given 1 hour after oral administration of AV-101 or placebo, and the second capsaicin injection was given in the other forearm 2 hours after the administration of AV-101 or placebo. The neurosensory testing began immediately at each capsaicin injection. The serial pain assessments using a 100-mm visual analog scale (VAS) occurred at preinjection and 0, 5, 10, 15, 30, 45, and 60 minutes after each capsaicin injection. The examiner asked the subject to rate the intensity by using the VAS of the spontaneous pain and elicited pain from the application of a 5.18 von Frey hair, 40° C. probe, and gentle stroking with a 1-inch foam brush. The VAS consisted of a 100-mm line with “no pain” written at the 0-mm end and the “worst imaginable pain” written at the 100-mm end. The distance in millimeters provided the pain measurement.
At least eight determinations of the hyperalgesic area borders were made using the same assessments and starting at different angles. Additionally, subjects were asked to rate the pain intensity of a 1-minute 45° C. heat stimulus (brief thermal stimulation) applied to the anterior thigh at 4.5 hours (±5 minutes) after study drug administration, then every 30 minutes (±5 minutes) through 6 hours after study drug administration. A radiant temperature probe was applied to fix the skin temperature at 36° C. during the pain assessments. Subjects used the VAS for all pain assessments.
All study assessment time points were anchored to Time 0, the time of study drug administration. For the capsaicin injection at 1 hour after dosing, the assessment interval (i.e., time after dosing of the study drug) was 60 to 120 minutes, during which time assessments occurred at approximately 60, 65, 70, and 75 minutes and then every 15 minutes through the 120-minute time point (i.e., 0, 5, 10, 15, 30, 45, and 60 minutes after capsaicin injection). The second injection of capsaicin was administered approximately 2 hours after dosing of the clinical trial material (CTM), and the assessment interval (i.e., time after dosing of the CTM) was 120 to 180 minutes. The serial pain assessments followed the same schedule, as described after the first capsaicin injection.
The primary efficacy endpoint was the analgesic response to spontaneous pain at each dose level of AV-101 120 to 180 minutes after dosing on Day 14.

Data set [8] can be described thus: Reported feelings of well-being (anti-depressive activity) in the clinical study. The format is in vivo, human. To be noted: zero subjects in the placebo group. An excerpt:
In the clinical study described in this application, 5 out of 26 subjects (as contrasted with zero subjects in the placebo group) affirmatively reported feelings of well being. This is consistent with reports that the glutamatergic system contributes to the pathophysiology of depression and that stress can induce changes in NMDA receptors. See, for example, Calabrese et al. “Stress-Induced Changes of Hippocampal NMDA Receptors: Modulation by Duloxetine Treatment,” PLoS ONE 2012, 7(5): e37916. doi:10.1371/journal.pone.0037916.

In the next data set the test system is seizures. To be noted: rats, preclinical studies (Reference 11); cited from earlier work.
In a further data set the test system is dopaminergic neurons. Conditions: brains of rats (Reference 7); cited from earlier work.
For data set [9], the system named is peripheral tissue inflammation and nerve injury. In words: Animal models of peripheral tissue inflammation and nerve injury. The format is in vivo.
[10] abbreviates: Day 1, after 1,440-mg oral dose of L-4-chlorokynurenine.

For the compound `O=C(O)c1cc(O)c2ccc(Cl)cc2n1` [7-chlorokynurenic acid], the “Mean 7-chlorokynurenic acid Cmax” value is 42.7 ng/mL in data set [1] (Day 1, after 360-mg oral dose of L-4-chlorokynurenine) and 314 ng/mL in data set [1] (setting [10]). The “Mean 7-chlorokynurenic acid AUCO-t” value in data set [1] (setting [10]) is listed as 985 ng·b/mL; in [1] (Day 1, after lowest dose (360 mg) of L-4-chlorokynurenine), 156 ng·h/mL. In addition, the “Dose linearity of mean 7-chlorokynurenic acid Cmax and AUCO-t” value in data set [1] (after oral L-4-chlorokynurenine 360 to 1,440 mg) is “approximately dose linear”. The “Mean Cmax and AUCO-t of 7-chlorokynurenic acid on Day 14 compared with Day 1” value in data set [1] (once-daily oral L-4-chlorokynurenine for 14 days) is recorded as “slightly lower on Day 14 than those on Day 1”. Besides, in data set [2], the “Prevention of excitotoxic and ischemic neuronal damage” value was “prevent excitotoxic and ischemic neuronal damage”. For the same compound, the “GlyB antagonist potency and specificity” value in data set [3] is “One of the most potent and specific GlyB antagonists”. The “Crossing of the blood-brain barrier / access to the CNS” value in data set [4] is recorded as “does not cross the blood-brain barrier”.

Consider `Nc1cc(Cl)ccc1C(=O)CC(N)C(=O)O` [L-4-chlorokynurenine], for which the “Safety and tolerability in humans” value in [5] was “safe and tolerable in humans without substantial side effects or any significant adverse effects”. Besides, in data set [6], the “Dose linearity of mean L-4-chlorokynurenine Cmax and AUCO-∞” value is “approximately dose linear, although not proportional”; the “Mean Cmax and AUCO-t of L-4-chlorokynurenine on Day 14 compared with Day 1” value was “slightly lower on Day 14 than those on Day 1”; the “Mean L-4-chlorokynurenine AUCO-t” value stood at 196000 ng·h/mL; the “Mean L-4-chlorokynurenine Tmax” value was approximately 2 h. Moreover, the “Mean t½ of L-4-chlorokynurenine” value in [6] lay in the range of 1.64 to 1.82 h. In addition, the “Mean L-4-chlorokynurenine AUCO-t” value in [6] (360 mg) turned out to be 64000 ng·h/mL. The “Conversion to 7-chlorokynurenic acid” value with activated astrocytes is given as “efficiently converted”. In addition, the “Least squares means of the AUPC for allodynia pain, mechanical hyperalgesia pain and heat hyperalgesia pain” value in [7] (1,080 mg (Cohort 2) versus placebo) is “consistent decrease”. Moreover, the “MAXPAIN, Spontaneous Pain” value in [7] (1080 mg oral daily, n=13, 100-mm VAS, placebo 77.00) is listed as 75.08. Further, the “MAXPAIN, Allodynia Pain (foam brush)” value in data set [7] (1080 mg oral daily, n=13, 100-mm VAS, placebo 79.50) stood at 70.92. For the same compound, the “MAXPAIN, Mechanical Allogesia” value in [7] (1080 mg oral daily, n=13, 100-mm VAS, placebo 79.75) is given as 66.23. For the same compound, the “MAXPAIN, Heat Allogesia” value in data set [7] (1080 mg oral daily, n=13, 100-mm VAS, placebo 84.75) worked out at 78.85. The “Secondary efficacy endpoints (AUPC for spontaneous pain, elicited pain from von Frey hair and 40° C. probe)” value in data set [7] (120 to 180 minutes Day 1, 60 to 180 minutes Days 1 and 14, versus placebo) is given as “no significant changes”. Also, the “Area under the pain time curve (AUPC) for spontaneous pain, primary efficacy endpoint” value in [7] (each dose level, 120 to 180 minutes after dosing on Day 14, versus placebo) is listed as “no significant change”. Also, the “Subject-reported relief from neuropathic pain, specifically hyperalgesia pain” value in data set [7] (humans, at the clinical dosages) is listed as “subjects reported relief from neuropathic pain”. Further, the “Subjects affirmatively reporting feelings of well being” value in data set [8] was 5 out of 26. Besides, the Anti-seizure activity result with seizures is recorded as “anti-seizure activity”. For the same compound, in the data set on dopaminergic neurons, the “Firing rate and burst firing activity of dopaminergic neurons” value was “increase the firing rate and burst firing activity”. Further, the “Crossing of the blood-brain barrier / access to the CNS” value in data set [4] is “readily gains access to the central nervous system”. For the same compound, the “Tolerability in animal models” value in data set [9] (at doses that produce antihyperalgesic effects) is given as “well tolerated”. For the same compound, the “Antihyperalgesic actions in animal models” value in data set [9] (three animal models of peripheral tissue inflammation and nerve injury) is recorded as “potent antihyperalgesic actions”.

(Values after patent publication US9993453B2, “Dosage forms and therapeutic uses L-4-chlorokynurenine” (VISTAGEN THERAPEUTICS, INC., priority 2013, dated 2018).)
